For data set [1], the system named is dermabraded skin (cutaneous reactions, redness/bleeding).
Source text: In Vivo Dermabrasion Assays in Minipig Minizone Model Using a BURANE XL Laser and Skin Interaction with Brimonidine Gel
The objectives of this study were to assess the local dermal effect of single dermal application of Brimonidine Gel placebo or 1% applied on delimited abraded mini-zone (2.8 cm^2 and different dermabraded skin conditions) in the Gottingen® minipig.
One female Göttingen® minipig (naïve), between 4 and 8 months old, received Dermal (topical) application of Brimonidine Gel at 1% on delimited mini-zones (2.8 cm^2, using a Ringflost®).
each zone is clipped free from hair. On the clipped area (dorsum, avoiding the spinal column and the intra-scapular area), 4 minizones (2 on either side) is delimited using Ringflost® and surrounded with an indelible pen.
The animal is anesthetized (Zoletil®) before dermabrasion. Each minizone is disinfected with chlorexidine. The experimental conditions used for each zone is set as follows:
The Brimonidine gel 1% is gently applied 5 minutes prior to the dermabrasion procedure.
The cutaneous reaction is evaluated immediately, and 2-5 and 10 minutes after the dermabrasion procedure. The skin is examined to evaluate the degree of erythema, edema, desquamation, scab formation and any other lesions. Cutaneous reaction is evaluated according to the grading scale describe in “OCDE Guideline No. 404. Acute dermal irritation/corrosion”. […]
The conditions of data set [2]: in vivo; cited from earlier work.
Another data set deals with α2A-adrenoceptor (Sus scrofa, UniProt P18871). Particulars: porcine species; Wikberg-Matsson and Simonsen 2001; cited from earlier work.

Each structure is given as a SMILES string.

Sequence of α2A-adrenoceptor (P18871 whole entry): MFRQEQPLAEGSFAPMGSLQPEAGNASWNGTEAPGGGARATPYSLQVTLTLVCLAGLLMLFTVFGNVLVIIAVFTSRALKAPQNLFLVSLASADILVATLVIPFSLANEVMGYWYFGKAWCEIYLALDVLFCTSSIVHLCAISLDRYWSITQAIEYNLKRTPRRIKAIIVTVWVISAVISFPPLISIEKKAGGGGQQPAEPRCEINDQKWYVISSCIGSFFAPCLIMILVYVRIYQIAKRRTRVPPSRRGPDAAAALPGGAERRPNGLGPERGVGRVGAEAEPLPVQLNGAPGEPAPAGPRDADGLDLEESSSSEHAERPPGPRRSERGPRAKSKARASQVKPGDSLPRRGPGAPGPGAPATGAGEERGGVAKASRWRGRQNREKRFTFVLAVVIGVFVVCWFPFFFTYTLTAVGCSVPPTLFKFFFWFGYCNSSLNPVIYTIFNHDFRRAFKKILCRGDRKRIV

Regarding `Brc1c(NC2=NCCN2)ccc2nccnc12` [Brimonidine, (5-Bromo-quinoxalin-6-yl)-(4,5-dihydro-1H-imidazol-2-yl)-amine], in data set [1] (Brimonidine gel 1% topical on dermabraded minizones, conclusion of Example 3), the “cutaneous reactions (bruising or bleeding) during aesthetic or surgery procedures” value is on record as “capable of decreasing cutaneous reactions”. The “vasoconstrictor effect (comparative analysis of pictures Z3 vs Z4)” value in data set [1] (Brimonidine gel 1% topical, applied 5 minutes prior to dermabrasion, 10 j/cm2, 6 passes, treated zone Z4 vs non-treated Z3, one female minipig) was “visually more evident starting from 5 min post-dermabrasion until 14 min and beyond”. The half-life (as a rule, how long it takes for the measured level to halve) in data set [2] is 4 h. In addition, the vasoconstrictor activity result at α2A-adrenoceptor is “potent vasoconstrictor”.

Values taken from US20120295914A1, “COMBINATION OF ADRENERGIC RECEPTOR AGONIST ALPHA-1 OR ALPHA-2, PREFERABLY BRIMONIDINE WITH FILLERS, PREFERABLY HYALURONIC ACID” (Galderma Research & Development, priority 2009, published 2012).
